Reference: patent publication US20210071180A1, “MICRORNA 584-5P COMPOSITIONS AND METHODS FOR TREATING CANCER” (BOARD OF REGENTS, THE UNIVERSY OF TEXAS SYSTEM, priority 2018, published 2021)

Experiments:
eIF4E1 = assay: Western blot analysis of eIF4E1; type: cell-based; conditions: MB cells
Experimental: Next, it was determined whether miR-584-5p and its target genes, eIF4E3 and HDAC1, show reciprocal expression pattern in MB. […] In FIG. 16A, data represent Log 2 ratio tumor/cerebellum control. Data mined from GSE42657. In FIG. 16B, data represent Log 2 ratio tumor/cerebellum control. Data mined from GSE28245. To further confirm those results, miR-584-5p expression in MB patient-derived xenografts was examined. […] The p-values were calculated using one-way ANOVA followed by Sidak's multiple-comparisons test. Error bars represent mean±SEM. To further confirm the specificity of miR-584-5p-eIF4E3 signaling axis in MB, the expression of eIF4E1, which acts as an oncogene in several cancers (Bhat, M. et al. Nat Rev Drug Discov 14, 261-278, (2015)), was tested in miR-584-5p treated cells.

[1] = system: DAOY cells stably expressing green fluorescent protein (GFP)-luciferase; assay: Orthotopic intracranial tumor xenograft, bioluminescence imaging and survival
Experimental: For in vivo studies, orthotopic intracranial transplantation of the scrambled and miR-584-5p-transfected DAOY cells stably expressing green fluorescent protein (GFP)-luciferase was performed. […] The p-values were determined by the sum-of-squares F test. Error bars represent mean±SEM. […] The p-value was determined using the log-rank (Mantel-Cox) test. Error bars represent SE. ****, p<0.0001; ***, p<0.001.
Animals and intracranial xenografts. Athymic nude mice (nu/nu) were obtained from Harlan, USA. Three- to 5-week-old athymic nude mice (nu/nu) were anesthetized using isoflurane by inhalation. Using a Hamilton syringe, 1 million cells were stereotactically implanted into the right corpus striatum at a depth of 3.5 mm at a point 2.5 mm lateral to the midline and 1.5 mm anterior to the bregma. After the surgery, the animal recovered on a heating pad in a normal mouse cage to maintain its body temperature at 37°-37.2° C. An ocular lubricating ointment (AKORN) was administered until spontaneous blinking resumed. Starting from week 2, control group animals received dimethyl sulfoxide, whereas VCR group animals received 1 mg of VCR (Sigma-Aldrich) per kg of body weight intraperitoneally once per week for 6 weeks. The Xenogen Small-Animal Imaging System was used for subcellular imaging in live mice once per week. Animals were killed, and brains were fixed and analyzed.

MB cells = assay: Immunofluorescence of mitotic spindles / mitotic catastrophe; type: cell-based
Experimental: DNA is stained with DAPI (blue), whereas spindle is stained with β-tubulin (red) (below).
Immunofluorescence and Western blot analysis Immunofluorescence analyses was carried out on cells fixed in 4% paraformaldehyde (Imam, J. S. et al. PLoS One 7, e52397, (2012)). […]
VCR disrupts the integrity of the mitotic spindle and destabilizes microtubules (George, P., Journey, L. J. & Goldstein, M. N. J Natl Cancer Inst 35, 355-375 (1965)). […] In FIG. 12A, the p-values were calculated using standard Student t-tests. […] The p-values were calculated using standard Student t-tests. […] In FIG. 11F, the p-values were calculated using standard Student t-tests. […] In FIG. 11H, The p-values were calculated using standard Student t-tests. […] Quantitative real-time PCR. […]

HDAC1 = assay: qPCR and Western blot of HDAC1 in MB cells; type: cell-based; conditions: transcript and protein levels, all cell lines tested
neural stem cell markers = assay: qPCR analysis of neural stem cell markers; type: cell-based; conditions: miR-584-5p mimic-transfected cells
Experimental: Several research groups have posited the presence of tumor-initiating cells in MBs (Manoranjan, B. et al. Pediatr Res 71, 516-522, (2012)). Moreover, the tumor-initiating cells in general have not responded to radiation and chemotherapy drugs (Manoranj an, B. et al. Pediatr Res 71, 516-522, (2012)). Therefore, it was tested whether miR-584 may inhibit MB tumor-initiating cell proliferation. Consistent with the characteristics of tumor-initiating cells, MB cells cultured in serum-free stem cell media formed tumor spheres that were serially passaged for many cycles (FIG. 14A). Bar graphs show number and size of medullospheres obtained from D556Med cells transfected with miR-NC or miR-584-5p mimic. The p-value was calculated using a standard Student t-test. Error bars represent mean±SEM. […] The p-value was calculated using one-way ANOVA followed by Sidak's multiple-comparisons test. Error bars represent mean±SEM. These findings are highly significant because, this study is one of the first to propose a role for miR-584-5p and its target genes in regulating MB stem cell proliferation.

eIF4E3 = assay: qPCR and Western blot of eIF4E3 in MB cells; type: cell-based; conditions: transcript and protein levels, all cell lines tested

What does the source list for “miR-584-5p: microRNA mimic; nucleotide sequence UUAUGGUUUGCCUGGGACUGAG (SEQ ID NO: 1); purchased from Thermofisher (chemistry not given here)”?
eIF4E1 levels (eIF4E1): did not show any change; MB tumor growth ([1]; transfected DAOY cells, in comparison with scrambled-transfectant tumor): dramatically reduced MB growth; survival of mice ([1]; vs scrambled-transfectant group, Kaplan-Meier): lived significantly longer; mitotic catastrophe features (MB cells; miR-584-5p-overexpressing MB cells): many cells with multipolar metaphase/anaphase, spindles with unorganized poles, micronuclei, and aneuploidy; mitotic spindle defects (MB cells; β-tubulin/DAPI staining): variety of mitotic spindle defects; expression of HDAC1 (HDAC1): significantly reduced expression; levels of neural stem cell markers (neural stem cell markers): significantly reduced; expression of eIF4E3 (eIF4E3): significantly reduced expression
